# According to patent US10023544B2, “Heterocyclic compound” (Takeda Pharmaceutical Company Limited, priority 2014, dated 2018):
# Tests used:
# HFD-fed mouse = assay: Test on elevation of protein concentration in feces using HFD-fed mouse; type: in vivo; settings: 10 mg/kg oral, whole feces at day 1 of administration, mean ± SD
# Procedure: A 0.5% methylcellulose suspension (test compound administered group, 5 mice per group) containing each test compound (10 mg/kg) or a 0.5% methylcellulose suspension (test compound non-administered group (vehicle), 5 mice per group) was orally administered to each high fat diet-fed (HFD-fed) mouse (D12079B diet, male, 15 weeks old), and the whole feces were recovered at day 1 of administration. The dry feces were dissolved in a 0.5 N aqueous sodium hydroxide solution. After centrifugation at 12,000 rpm, a protein concentration was quantified (Lowry method) using the supernatant to calculate a protein concentration (mg/g feces) in 1 g of feces. The mean and standard deviation of each group are shown below.
# DIO mouse = assay: Test on antiobesity action using DIO mouse; type: in vivo; settings: mean ± SD; for Body weight (g) At start of administration: baseline
# Procedure: A 0.5% methylcellulose suspension (test compound administered group, 5 or 6 mice per group) containing each test compound (20 or 60 mg/kg) or a 0.5% methylcellulose suspension (test compound non-administered group (vehicle), 6 mice per group) was orally administered to each diet-induced obesity (DIO) mouse (D12079B diet, male, 46 weeks old) once a day for 4 weeks. The means of body weights and standard deviations at the start of administration and after 4-week continuous administration are shown below.
# [1] = biological target: T1, Human recombinant enteropeptidase (Homo sapiens, UniProt P98073); assay: Human enteropeptidase inhibitory activity; type: biochemical; settings: 3.3 uM test compound; fluorescence intensity 2 hours after start of reaction; read-out: Inhibition rate at 3.3 uM (%)
# T1 construct: purchased ITSI-Biosciences, LLC #REN-260
# T1 sequence (P98073 whole entry): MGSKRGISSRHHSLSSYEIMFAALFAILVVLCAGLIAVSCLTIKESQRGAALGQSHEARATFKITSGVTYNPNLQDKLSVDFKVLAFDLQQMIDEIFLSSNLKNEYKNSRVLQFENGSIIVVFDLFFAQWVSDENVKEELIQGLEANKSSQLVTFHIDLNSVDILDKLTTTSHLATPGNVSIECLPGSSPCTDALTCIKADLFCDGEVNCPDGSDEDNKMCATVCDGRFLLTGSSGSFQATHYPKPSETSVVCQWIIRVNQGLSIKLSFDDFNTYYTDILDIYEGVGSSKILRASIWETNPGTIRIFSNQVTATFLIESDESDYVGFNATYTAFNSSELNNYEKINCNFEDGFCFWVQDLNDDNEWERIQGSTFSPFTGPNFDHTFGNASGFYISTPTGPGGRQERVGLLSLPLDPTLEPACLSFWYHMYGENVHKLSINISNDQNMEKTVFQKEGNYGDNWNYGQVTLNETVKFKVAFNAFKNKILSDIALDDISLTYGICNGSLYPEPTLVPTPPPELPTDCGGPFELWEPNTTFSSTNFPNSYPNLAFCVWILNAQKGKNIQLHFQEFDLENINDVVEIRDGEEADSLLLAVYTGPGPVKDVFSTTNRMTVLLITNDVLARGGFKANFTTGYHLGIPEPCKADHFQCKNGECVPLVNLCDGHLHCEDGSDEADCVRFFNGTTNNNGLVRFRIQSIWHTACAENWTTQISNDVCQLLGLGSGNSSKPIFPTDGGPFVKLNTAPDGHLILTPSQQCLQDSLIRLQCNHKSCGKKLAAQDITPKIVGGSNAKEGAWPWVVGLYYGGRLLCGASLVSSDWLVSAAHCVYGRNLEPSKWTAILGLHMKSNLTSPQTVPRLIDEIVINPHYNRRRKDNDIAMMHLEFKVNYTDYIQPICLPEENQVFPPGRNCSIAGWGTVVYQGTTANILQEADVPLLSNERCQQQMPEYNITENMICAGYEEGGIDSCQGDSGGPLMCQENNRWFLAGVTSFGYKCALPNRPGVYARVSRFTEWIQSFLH
# Procedure: Human recombinant enteropeptidase (#REN-260, ITSI-Biosciences, LLC) was diluted with an assay buffer (50 mM Tricine (pH 8.0), 0.01 (w/v) % Tween 20, 10 mM CaCl2) to prepare a 24 mU/mL enzyme solution. Subsequently, 5FAM-Abu-Gly-Asp-Asp-Asp-Lys-Ile-Val-Gly-Gly-Lys(CPQ2)-Lys-Lys-NH2 (purity: 97.2%, CPC Scientific, Inc.) produced according to a synthesis method known per se was diluted with an assay buffer to prepare a 2.1 uM (“u” represents “micro”) substrate solution. Each test compound was dissolved in DMSO to prepare a 1 mM solution, which was then diluted 100-fold with an assay buffer to prepare a compound solution. The compound solution (5 uL/well) and the substrate solution (5 uL/well) were added to a 384-well black plate (#784076, Greiner Bio-One) and mixed. Then, the enzyme solution (5 uL/well) was added to the plate and mixed to start reaction. The fluorescence intensity was measured at an excitation wavelength of 485 nm and a fluorescence wavelength of 535 nm using a fluorescence plate reader EnVision (PerkinElmer Inc.). Also, the same reaction as above was performed except that the test compound was not added (test compound non-supplemented group). In addition, the same reaction as above was performed except that neither the test compound nor the enzyme was added (control group). The inhibition rate was calculated from the fluorescence intensity 2 hours after the start of the reaction according to the following equation: Inhibition rate (%)=(1−(Fluorescence intensity of the test compound supplemented group−Fluorescence intensity of the control group)/(Fluorescence intensity of the test compound non-supplemented group−Fluorescence intensity of the control group))×100
inhibition at 3.3 µM [1],Compound,other results
101%,"N=C(N)Nc1ccc(C(=O)Oc2cccc(C3=NO[C@](CC(=O)O)(C(=O)O)C3)c2)cc1 [Example 1, (5R)-3-(3-((4-Carbamimidamidobenzoyl)oxy)phenyl)-5-(carboxymethyl)-4,5-dihydro-1,2-oxazole-5-carboxylic acid]",Protein concentration in feces (HFD-fed mouse): 151.5 ± 22.8 mg/g; Body weight (g) After 4-week continuous administration (DIO mouse; 20 mg/kg oral once a day for 4 weeks): 43.1 ± 3.5 g; Body weight (g) At start of administration (DIO mouse; 20 mg/kg oral once a day): 48.9 ± 2.0 g; Body weight (g) After 4-week continuous administration (DIO mouse; 60 mg/kg oral once a day for 4 weeks): 40.2 ± 2.1 g; Body weight (g) At start of administration (DIO mouse; 60 mg/kg oral once a day): 48.9 ± 2.5 g
101%,"N=C(N)Nc1ccc(C(=O)Oc2cccc(C3=NO[C@@](CC(=O)O)(C(=O)O)C3)c2)cc1 [Example 5, (5S)-3-(3-((4-Carbamimidamidobenzoyl)oxy)phenyl)-5-(carboxymethyl)-4,5-dihydro-1,2-oxazole-5-carboxylic acid]",Protein concentration in feces (HFD-fed mouse): 144.5 ± 26.6 mg/g
100%,"N=C(N)Nc1ccc(C(=O)Oc2cc(CCC(=O)N[C@@H](CC(=O)O)C(=O)O)cc(C3=NOC(CC(=O)O)(CC(=O)O)C3)c2)cc1 [Example 23, N-(3-(3-(5,5-bis(carboxymethyl)-4,5-dihydro-1,2-oxazol-3-yl)-5-((4-carbamimidamidobenzoyl)oxy)phenyl)propanoyl)-L-aspartic acid]",
100%,"N=C(N)Nc1ccc(C(=O)Oc2ccc(CCC(=O)O)c(C3=NOC(CC(=O)O)(CC(=O)O)C3)c2)cc1 [Example 24, 3-(2-(5,5-bis(carboxymethyl)-4,5-dihydro-1,2-oxazol-3-yl)-4-((4-carbamimidamidobenzoyl)oxy)phenyl)propanoic acid]",
100%,"N=C(N)Nc1ccc(C(=O)Oc2ccc(CCC(=O)N3CCS(=O)(=O)CC3)c(C3=NOC(CC(=O)O)(CC(=O)O)C3)c2)cc1 [Example 25, 2,2′-(3-(5-((4-Carbamimidamidobenzoyl)oxy)-2-(3-(1,1-dioxidothiomorpholin-4-yl)-3-oxopropyl)phenyl)-4,5-dihydro-1,2-oxazole-5,5-diyl)diacetic acid]",
100%,"N=C(N)Nc1ccc(C(=O)Oc2ccc(CCC(=O)N3CCOCC3)c(C3=NOC(CC(=O)O)(CC(=O)O)C3)c2)cc1 [Example 26, 2,2′-(3-(5-((4-carbamimidamidobenzoyl)oxy)-2-(3-(morpholin-4-yl)-3-oxopropyl)phenyl)-4,5-dihydro-1,2-oxazole-5,5-diyl) diacetic acid]",
100%,"CS(=O)(=O)CCNC(=O)CCc1ccc(OC(=O)c2ccc(NC(=N)N)cc2)cc1C1=NOC(CC(=O)O)(CC(=O)O)C1 [Example 27, 2,2′-(3-(5-((4-carbamimidamidobenzoyl)oxy)-2-(3-((2-(methylsulfonyl)ethyl)amino)-3-oxopropyl)phenyl)-4,5-dihydro-1,2-oxazole-5,5-diyl)diacetic acid]",
100%,"N=C(N)Nc1ccc(C(=O)Oc2ccc(CCC(=O)N[C@@H](CC(N)=O)C(=O)O)c(C3=NOC(CC(=O)O)(CC(=O)O)C3)c2)cc1 [Example 28, N^2-(3-(2-(5,5-bis(carboxymethyl)-4,5-dihydro-1,2-oxazol-3-yl)-4-((4-carbamimidamidobenzoyl)oxy)phenyl)propanoyl)-L-asparagine]",
100%,"N=C(N)Nc1ccc(C(=O)Oc2ccc(CCC(=O)N[C@@H](CCC(N)=O)C(=O)O)c(C3=NOC(CC(=O)O)(CC(=O)O)C3)c2)cc1 [Example 29, N^2-(3-(2-(5,5-bis(carboxymethyl)-4,5-dihydro-1,2-oxazol-3-yl)-4-((4-carbamimidamidobenzoyl)oxy)phenyl)propanoyl)-L-glutamine]",
100%,"N=C(N)Nc1ccc(C(=O)Oc2ccc(CCC(=O)NCC(=O)O)c(C3=NOC(CC(=O)O)(CC(=O)O)C3)c2)cc1 [Example 30, N-(3-(2-(5,5-bis(carboxymethyl)-4,5-dihydro-1,2-oxazol-3-yl)-4-((4-carbamimidamidobenzoyl)oxy)phenyl)propanoyl)glycine]",
100%,"CN(CC(=O)O)C(=O)CCc1ccc(OC(=O)c2ccc(NC(=N)N)cc2)cc1C1=NOC(CC(=O)O)(CC(=O)O)C1 [Example 31, N-(3-(2-(5,5-bis(carboxymethyl)-4,5-dihydro-1,2-oxazol-3-yl)-4-((4-carbamimidamidobenzoyl)oxy)phenyl)propanoyl)-N-methylglycine]",
100%,"N=C(N)Nc1ccc(C(=O)Oc2ccc(CCC(=O)NCCC(=O)O)c(C3=NOC(CC(=O)O)(CC(=O)O)C3)c2)cc1 [Example 32, N-(3-(2-(5,5-bis(carboxymethyl)-4,5-dihydro-1,2-oxazol-3-yl)-4-((4-carbamimidamidobenzoyl)oxy)phenyl)propanoyl)-beta-alanine]",
100%,"N=C(N)Nc1ccc(C(=O)Oc2ccc(CCC(=O)N3CCC(C(=O)O)CC3)c(C3=NOC(CC(=O)O)(CC(=O)O)C3)c2)cc1 [Example 33, 1-(3-(2-(5,5-Bis(carboxymethyl)-4,5-dihydro-1,2-oxazol-3-yl)-4-((4-carbamimidamidobenzoyl)oxy)phenyl)propanoyl)piperidine-4-carboxylic acid]",
101%,"N=C(N)Nc1ccc(C(=O)Oc2ccc(CCC(=O)NCCS(=O)(=O)O)c(C3=NOC(CC(=O)O)(CC(=O)O)C3)c2)cc1 [Example 34, 2,2′-(3-(5-((4-Carbamimidamidobenzoyl)oxy)-2-(3-oxo-3-((2-sulfoethyl)amino)propyl)phenyl)-4,5-dihydro-1,2-oxazole-5,5-diyl)diacetic acid]",
